# Experimental data as given in patent publication US8673983B2, “Melanins synthesized chemically or via enzyme catalysis” (priority 2007, dated 2014).
# Tested on: cultured human foreskin fibroblasts
# Test: not given
# Conditions: not given
row,Compound,Toxicity
1,Nordihydroguaiuretic acid,N

# Tested on: not listed separately
# Test: physchem
# Conditions: 30 °C, pH 7, aqueous buffer, thermodynamic from solid
row,Compound,solubility
1,"O=C1c2ccccc2C(=O)c2c1ccc(O)c2O [Alizarin, 1,2-dihydroxy-anthraquinone]",< 2000 µg/mL
2,"O=C(O)C=Cc1ccc(O)c(O)c1 [Caffeic acid, 3,4-dihydroxycinnamic acid]",> 2000 µg/mL
3,"O=C(O)Cc1ccc(O)c(O)c1 [DOPAC, 3,4-dihydroxyphenylacetic acid]",> 2000 µg/mL
4,"O=c1ccc2cc(O)c(O)cc2o1 [Esculetin, 6,7 Dihydroxvcoumarin]",< 2000 µg/mL
5,"O=C(O)c1cc(O)c(O)c(O)c1 [Gallic acid, 3,4,5-trihydroxybenzoic acid]",< 2000 µg/mL
6,"O=C(O)c1ccc(O)c(O)c1 [Protocatechuric acid, 3,4-dihydroxybenzoic acid]",> 2000 µg/mL
7,"Oc1cccc(O)c1O [Pyrogallol, 1,2,3-trihydroxvbenzene]",< 2000 µg/mL
8,"O=c1c(O)c(-c2ccc(O)c(O)c2)oc2cc(O)cc(O)c12 [Quercetin, 2-(3,4-dihydroxyphenyl)-3,5,7-trihydroxy-4H-1-benzopyran-4-one]",< 2000 µg/mL

# Tested on: not listed separately
# Test: in vitro
# Conditions: human
row,Compound,CC50
1,"Nc1nc2c(ncn2COCCO)c(=O)[nH]1 [ACV, Acyclovir]",> 100 µg/mL
2,"Nc1nc(O)c2ncn(COC(CO)CO)c2n1 [GCV, ganciclovir]",> 100 µg/mL

# Tested on: HSV-2
# Test: microbe, parasite or virus in culture
# Assay type: cell-based
# Conditions: Human alphaherpesvirus 2, HFF, read-out: ACV EC50
row,Compound,EC50
1,"Nc1nc2c(ncn2COCCO)c(=O)[nH]1 [ACV, Acyclovir]",1.4 µg/mL

# Tested on: HSV-1
# Test: microbe, parasite or virus in culture
# Assay type: cell-based
# Conditions: Human alphaherpesvirus 1, HFF, read-out: ACV EC50
row,Compound,EC50
1,"Nc1nc2c(ncn2COCCO)c(=O)[nH]1 [ACV, Acyclovir]",1.1 µg/mL

# Tested on: PPO enzyme (E.C. 1.10.3.1) from banana (Musa sapientum) skin
# Test: test of potential melanogenic substrates of banana PPO (pigment formation vs blank)
# Assay type: biochemical
# Conditions: pH 7
row,Compound,PPO Substrate
1,"5,6,7 trihydroxyflavanone [Baicalein]",Y
2,"O=C1c2ccccc2C(=O)c2c1ccc(O)c2O [Alizarin, 1,2-dihydroxy-anthraquinone]",Y
3,"O=c1ccc2cc(O)c(O)cc2o1 [Esculetin, 6,7 Dihydroxvcoumarin]",Y
4,"O=C(O)c1ccc(O)c(O)c1 [Protocatechuric acid, 3,4-dihydroxybenzoic acid]",Y
5,"NCCc1c[nH]c2ccc(O)cc12 [Serotonin, 5-hydroxytryptamine]",Y
